# From patent US10675286B2, “Heterocyclic compounds and uses thereof” (Infinity Pharmaceuticals, Inc., priority 2014, dated 2020)
# What was measured:
# [1] = test system: RANKL driven differentiation of osteoclasts; test: Osteoclast differentiation assay (TRAP) from bone marrow macrophages; type: cell-based, mouse; details: 6 days
# Method: Long bones from young C57B6 mice were harvested and bone marrow was extruded by gentle lavage of the bone marrow cavities with a 28 gage needle. The cells were screened, and red blood cells were removed using red blood cell lysis buffer (Sigma). Bone marrow cells were differentiated to macrophages using 20 ng/ml mouse MCSF (RnD systems) for 3 days (RPMI and 20% FCS). The cell were washed with PBS, and lifted with Accutase for 10 minutes.
# The bone marrow macrophage cells were plated at 150,000 cells per well in a 96 well plate in a MEM 10% FCS. […] Then 25 ng/ml mouse MCSF with or without mouse RANKL (100 ng/ml, RnD systems) was added for 6 days. Media changes (including drugs) were done at day 3 and day 5. The cells were then fixed and stained with the tartrate resistant acid phosphatase (TRAP) assay kit from Sigma according to the manufactures instructions. TRAP positive cells (osteoclasts and cells undergoing an osteoclastic differentiation) in a transect of the triplicate wells (at 20× […]) were manually counted by going through the widest part of each well.
# [2] = test system: M1 macrophage differentiation; test: M1 macrophage differentiation; type: cell-based; details: data not shown
# Method: A similar experiment was performed on M1 differentiation.
# 4T1 mammary carcinoma = test: 4T1 breast cancer model (orthotopic / subcutaneous), tumor growth and IHC; type: in vivo, mouse
# Method: Plasma is collected for pharmokinetic (PK) analysis.
# Luciferin measurements were taken twice a week.
# Immunohistochemistry was performed to determine the distribution of immune cells within the tumor. In particular, CD11b myeloid cells were examined, as were regulatory vs. effector T cells (CD3, CD4, CD8, FoxP3).
# [3] = Oral pharmacokinetics of Compound BB in dog; type: in vivo; details: 5 mg/kg oral
# Text: Compound BB's oral exposure is high in rat, dog and monkey. Good oral bioavailability and low clearance in rodent and non-rodent animal species results in high oral exposure.
# [4] = Pharmacokinetics in rodent and non-rodent animal species (ADME characteristics, Table 25)
# Text: These properties indicate the compound's suitability for in vivo administration.
# [5] = Target organ toxicity (TOT) study in rats, 10 days oral; type: in vivo
# Method: A target organ toxicity (TOT) study was performed in rats. […] This study assessed clinical observations/mortality, body weights, clinical pathology, toxicokinetics, and histopathology of select tissues. The tissues studied were: Adrenal gland, Bone marrow (femur), Brain, Small Intestine (including GALT), Heart, Large Intestine, Kidney, Stomach, Liver, Pancreas, Spleen, Testis, and Thymus. Doses were selected based on repeat-dose tolerability study, PK and plasma protein binding, and cellular IC50s for PI3K isoforms.
# LLC tumor brei = LLC tumor brei model, Compound BB with or without cyclophosphamide; type: in vivo, mouse
# Method: In this experiment, treatment began when tumors reached approx. 150 mm^3—around day 12. Caliper and xenogen images were monitored. Treatment groups n=13-15/group. […] Samples for FACs analysis were collected on day 23 post implant. Using FACS, cells were assayed for the level of CD11b and Gr-1.
# [6] = orthotopic 4T1, 7.5 mg/kg PO once daily 3 weeks
compound,measurement,setting,value
C[C@H](NC(=O)c1c(N)nn2cccnc12)c1cc2cccc(C#Cc3cnn(C)c3)c2c(=O)n1-c1ccccc1 [Compound BB],"RANKL driven differentiation of osteoclasts (TRAP positive cells, FIG. 17)",[1],prevents RANKL driven differentiation of osteoclasts
same,M1 macrophage differentiation,[2],did not have an observable effect
same,Tumor growth (FIG. 35),"4T1 mammary carcinoma; 4T1, Compound BB alone 15 mg/kg once daily 2 weeks",achieved a reduction in tumor growth
same,"CD11b+ myeloid cell staining in viable tumor regions (IHC, FIG. 37A)","4T1 mammary carcinoma; 4T1 tumors, day 13, vs vehicle",decrease in CD11b+ myeloid cell staining
same,Total luciferase flux (FIG. 33B),4T1 mammary carcinoma; [6],reduced total luciferase flux
same,Tumor growth (FIG. 33A),4T1 mammary carcinoma; [6],reduced tumor growth
same,Time the anti-tumor effect was maintained after discontinuation of treatment,4T1 mammary carcinoma; subcutaneous 4T1,at least 6 days
same,"Tumor growth (FIG. 34, FIG. 36)","4T1 mammary carcinoma; subcutaneous 4T1, single agent",demonstrated single agent activity
same,"Oral exposure (plasma concentrations within 24 hours, FIG. 43)",[3],high
same,Clearance and half-life in vivo,[4],low clearance and a long half-life in vivo
same,"Histopathology, gross changes",[5]; 10 days,no significant gross changes were observed
same,Decrease in body weights compared to vehicle,"[5]; high dose (50 mg/kg/day), 10 days",5-8%
same,"Histopathology, thymus","[5]; males at ≥7.5 mg/kg/day, females at 50 mg/kg/day",minimal/mild lymphoid depletion
same,Mortality and clinical signs,"[5]; oral 10 days, any dose level",No mortality or clinical signs were observed
same,Tolerability,"[5]; oral, 1, 7.5, 20, 50 mg/kg/day",well-tolerated for 10 days
same,"Histopathology, spleen",[5]; primarily at doses ≥20 mg/kg/day,minimal/mild lymphoid depletion of the marginal zone and periarteriolar lymphoid sheaths (PALS)
same,Clinical pathology,[5]; primarily in 20 and 50 mg/kg/day groups,"minimal changes in neutrophils, lymphocytes, and fibrinogen"
same,Tumor growth (FIG. 48),"LLC tumor brei; Compound BB 15 mg/kg QD PO, cyclophosphamide 50 mg/kg EOD IP",reduced tumor growth by about the same amount
same,"CD206 population in tumor (FACS, FIG. 52)",LLC tumor brei; Compound BB alone or with cyclophosphamide,decrease in the CD206 population
